Assays:
[1] = test system: VRE clinical isolate C27569; assay type: cell-based, E. faecium
[2] = test system: VRE clinical isolate C28535; assay type: cell-based, E. faecalis
[3] = test system: VRE clinical isolate S557; assay: organism not typed; assay type: cell-based, E. faecium
[4] = test system: VRE clinical isolate S234; assay: organism not typed; assay type: cell-based, E. faecalis
[5] = test system: VRE clinical isolate C21667; assay type: cell-based, E. faecalis
VRE clinical isolate D1 = assay: organism not typed; assay type: cell-based, E. faecium
[6] = test system: VRE clinical isolate SL152; assay type: cell-based, E. faecium
[7] = test system: VRE clinical isolate S344; assay type: cell-based, E. faecium

Measured: MIC

CCn1c(=O)cc(C)c2cc3c(C)cc(=O)n4c3c(c21)OC4 [DNM-2]
0.25 µg/mL: [1] | [2]

Cc1cc(=O)n(C)c2c3c4c(cc12)c(C)cc(=O)n4CO3 [DNM, deoxynybomycin]
0.25 µg/mL: all assays above
